Consider 32 compounds from ChEMBL document CHEMBL2029199, “Pyrazole and pyrimidine phenylacylsulfonamides as dual Bcl-2/Bcl-xL antagonists” (Bioorg Med Chem Lett, 2012).

For orientation: pIC50 means −log10 of the IC50, conventionally taken in molar units.

pIC50: −log10 of the molar value. The source made the active and inactive calls. No cut-off for these calls is given here.

The target of assay [1] is Apoptosis regulator Bcl-2 (Homo sapiens, UniProt P10415). Put plainly: Inhibition of GST-tagged Bcl2 using [FAM]-IWIAQELRRIGDEFNAYY-NH2 as substrate after 60 mins by fluorescence polarization assay.
Apoptosis regulator Bcl-2, sequence (P10415 whole entry): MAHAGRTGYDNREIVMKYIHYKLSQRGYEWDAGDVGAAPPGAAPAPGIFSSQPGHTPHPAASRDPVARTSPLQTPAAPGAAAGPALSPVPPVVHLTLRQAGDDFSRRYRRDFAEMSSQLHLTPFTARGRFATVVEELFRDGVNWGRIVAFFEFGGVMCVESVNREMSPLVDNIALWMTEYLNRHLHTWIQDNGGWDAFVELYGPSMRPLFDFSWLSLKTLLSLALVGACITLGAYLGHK
The next assay concerns the target Bcl-2-like protein 1 (Homo sapiens, UniProt Q07817). Description: Inhibition of biotin-labelled Bcl-xL using [FAM]-IWIAQELRRIGDEFNAYY-NH2 as substrate after 60 mins by FRET analysis.
The test system of assay [2] is MV4-11. Description: Induction of BAK oligomerization in mitochondria isolated from human MV411 cells at 1 uM after 40 mins by Western blotting analysis. It counts as functional. (In western blotting, separated proteins are transferred to a membrane and probed.)
In assay [3] the test system is MV4-11. Description: Cytotoxicity against human MV411 cells after 72 hrs by firefly luciferase-based assay in presence of 2% fetal calf serum. It counts as functional, cell-based. Particulars: MV4-11, 72 h.
A short description of assay [4]: Cytotoxicity against human SU-DHL4 cells after 72 hrs by firefly luciferase-based assay in presence of 2% fetal calf serum. It counts as functional, cell-based, SUD4. Particulars: SU-DHL-4, 72 h.
Assay [5] relates to MV4-11. Put plainly: Induction of cytochrome C release in mitochondria isolated from human MV411 cells at 0.1 uM after 40 mins by Western blotting analysis. It counts as functional.
Assay [6] concerns MV4-11. Description: Induction of BAK oligomerization in mitochondria isolated from human MV411 cells at 0.1 uM after 40 mins by Western blotting analysis. It counts as functional.
Assay [7] relates to MV4-11. Description: Induction of mitochondria depolarization in human MV411 cells at 3 uM after 7 hrs by flow cytometry. It counts as functional.
In assay [8] the test system is MV4-11. Put plainly: Induction of cytochrome C release in mitochondria isolated from human MV411 cells after 40 mins by Western blotting analysis. It counts as functional.
The test system of assay [9] is MV4-11. Description: Induction of BAK oligomerization in mitochondria isolated from human MV411 cells after 40 mins by Western blotting analysis. It counts as functional.
Assay [10] relates to MV4-11. Put plainly: Cytotoxicity against human MV411 cells after 72 hrs by firefly luciferase-based assay in presence of 10% fetal calf serum. It counts as functional, cell-based. Particulars: MV4-11, 72 h.

Bcl-2-like protein 1, sequence (Q07817 whole entry): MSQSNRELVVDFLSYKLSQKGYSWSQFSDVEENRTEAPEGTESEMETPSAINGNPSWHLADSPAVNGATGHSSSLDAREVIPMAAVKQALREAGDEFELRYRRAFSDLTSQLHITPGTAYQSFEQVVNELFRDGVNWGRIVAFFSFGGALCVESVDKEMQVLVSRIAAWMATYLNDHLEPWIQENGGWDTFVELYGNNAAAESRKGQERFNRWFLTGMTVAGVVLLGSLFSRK

As to `CCCCN(CCCC)c1ncc(Cl)c(-c2ccc(C(=O)NS(=O)(=O)c3ccc4ccccc4c3)cc2C(=O)N2CCc3ccccc3C2)n1`, the results for the pIC50 (in assay [1]; on Bcl-2-like protein 1) were 6.80 and 6.64, respectively.
For `CCCN(CCC)c1nccc(-c2ccc(C(=O)NS(=O)(=O)c3ccc4ccccc4c3)cc2C(=O)N2CCc3ccccc3C2)n1`, the result with MV4-11 [2] was inactive. Besides, the pIC50 is 6.82 in [1] and 6.60 against Bcl-2-like protein 1.
`CCCCN(CCCC)c1ncc(C)c(-c2ccc(C(=O)NS(=O)(=O)c3ccc4ccccc4c3)cc2C(=O)N2CCc3ccccc3C2)n1`: the pIC50 is 6.96 in [1] and 6.92 on Bcl-2-like protein 1.
In the case of `CCCCc1c(-c2ccc(C(=O)NS(=O)(=O)c3ccc4ccccc4c3)cc2C(=O)N2CCc3ccccc3C2)c(C(=O)OCC)nn1-c1cccc(Oc2ccccc2)c1`, the pIC50 was 6.85 in assay [1] and 6.33 on Bcl-2-like protein 1.
Consider `CCCCN(CCCC)c1nccc(-c2ccc(C(=O)NS(=O)(=O)c3ccc4c(c3)CCN4Cc3ccc(Cl)c(Cl)c3)cc2C(=O)N2CCc3ccccc3C2)n1`, for which the figures for the pIC50 (in assay [1]; at Bcl-2-like protein 1) were 6.92 and 6.15, respectively.
Turning to `CCCCc1c(-c2ccc(C(=O)NS(=O)(=O)CC)cc2C(=O)N2CCc3ccccc3C2)c(CO)nn1-c1ccc(Oc2cccc(Cl)c2)cc1`, the pIC50 in [1] was 6.72; at Bcl-2-like protein 1 it was 6.85.
As for `CCCCOc1ccc(-n2nc(CO)c(-c3ccc(C(=O)NS(=O)(=O)c4ccc5ccccc5c4)cc3C(=O)N3CCc4ccccc4C3)c2CCCC)cc1`, the pIC50 was 7.35 in assay [1], 7.59 against Bcl-2-like protein 1, 5.84 in the assay with MV4-11 [3] and 5.60 in [4].
Turning to `CCCCCS(=O)(=O)NC(=O)c1ccc(-c2c(CO)nn(-c3ccc(Oc4cccc(Cl)c4)cc3)c2CCCC)c(C(=O)N2CCc3ccccc3C2)c1`, the pIC50 in assay [1] is 7.19; against Bcl-2-like protein 1, 6.92.
Compound `CCCCc1c(-c2ccc(C(=O)NS(=O)(=O)CC[Si](C)(C)C)cc2C(=O)N2CCc3ccccc3C2)c(CO)nn1-c1ccccc1` had a pIC50 in assay [1] of 6.72.
`CCCCc1c(-c2ccc(C(=O)NS(=O)(=O)c3ccc4ccccc4c3)cc2C(=O)N2Cc3ccccc3C[C@H]2CO)c(CO)nn1-c1ccccc1`: in assay [1], the pIC50 was 7.96.
In the case of `CCCCN(CCCC)c1nccc(-c2ccc(C(=O)NS(=O)(=O)c3ccc4ccccc4c3)cc2C(=O)N2CCc3ccccc3C2)n1`, the pIC50 in assay [1] is 6.15; at Bcl-2-like protein 1, 6.30.
With `CCCCc1c(-c2ccc(C(=O)NS(=O)(=O)c3ccc4ccccc4c3)cc2C(=O)N2CCc3ccccc3C2)c(CO)nn1-c1cccc(CO)c1`, the negative-log IC50 (pIC50) is 7.15 in assay [1], 7.82 on Bcl-2-like protein 1, 5.30 in the assay with MV4-11 [3] and less than 5.00 in assay [4]. Besides, the outcome in the assay on MV4-11 [5] and in the assay on MV4-11 [6] was Active.
As to `CCCCN(CCCC)c1nccc(-c2ccc(C(=O)NS(=O)(=O)c3ccc4cccc(Cl)c4c3)cc2C(=O)N2Cc3ccccc3C[C@H]2CO)n1`, the pIC50 in assay [1] is 6.80; at Bcl-2-like protein 1, 6.89.
The compound `CCCCc1c(-c2ccc(C(=O)NS(=O)(=O)c3ccc4ccccc4c3)cc2C(=O)N2CCc3ccccc3C2)c(C(=O)OCC)nn1-c1ccc(Oc2ccccc2)cc1` gave a pIC50 against Bcl-2-like protein 1 of 7.26.
On to `CCOC(=O)c1nn(-c2ccccc2)c(C)c1-c1ccc(C(=O)NS(=O)(=O)c2ccc3ccccc3c2)cc1C(=O)N1CCc2ccccc2C1`, for which the results for the pIC50 (in [1]; at Bcl-2-like protein 1) were 5.38 and 6.19, respectively.
For `CCCCc1c(-c2ccc(C(=O)NS(=O)(=O)c3ccc4ccccc4c3)cc2C(=O)N2CCc3ccccc3C2)c(CO)nn1-c1ccc(-c2ccccc2)cc1`, in that order: 8.15 and 7.89.
Take `CCCCc1c(-c2ccc(C(=O)NS(=O)(=O)c3ccc4ccccc4c3)cc2C(=O)N2CCc3ccccc3C2)c(CO)nn1-c1ccc(Oc2cccc(Cl)c2)cc1`: the pIC50 in assay [1] is 8.10; against Bcl-2-like protein 1 it was 7.74; with MV4-11 [3], 6.15; in [4], 5.63. In the assay with MV4-11 [7], this compound showed an Activity of 25%. Besides, the outcome in the assay with MV4-11 [5] and with MV4-11 [6] was Active.
For the compound `CCCCc1c(-c2ccc(C(=O)NS(=O)(=O)c3ccc4ccccc4c3)cc2C(=O)N2CCc3ccccc3C2)c(C(=O)OCC)nn1-c1ccc(OC)cc1`, the values for the pIC50 (in [1]; against Bcl-2-like protein 1) were 5.75 and 7.32, respectively.
Take `CCCCc1c(-c2ccc(C(=O)NS(=O)(=O)c3ccc4cccc(Cl)c4c3)cc2C(=O)N2CCc3ccccc3C2)c(CO)nn1-c1ccc(Oc2cccc(Cl)c2)cc1`: the pIC50 in [1] was 8.22; on Bcl-2-like protein 1, 7.82; in the assay with MV4-11 [3] it was 6.24; in assay [4], 5.69.
For `CCCN(CCC)c1ncc(Cl)c(-c2ccc(C(=O)NS(=O)(=O)c3ccc4cccc(Cl)c4c3)cc2C(=O)N2Cc3ccccc3C[C@H]2CO)n1`, the Activity entry was “Dose-dependent effect” in the assay on MV4-11 [8], 25% with MV4-11 [7] and “Dose-dependent effect” in the assay on MV4-11 [9]. In addition, the pIC50 in assay [1] was 8.05; at Bcl-2-like protein 1 it was 8.05; with MV4-11 [3] it was 6.48; in assay [4], 5.42.
Take `CCCCc1c(-c2ccc(C(=O)NS(=O)(=O)c3ccc4ccccc4c3)cc2C(=O)N2Cc3ccccc3C[C@H]2CN)c(CO)nn1-c1ccccc1`: the pIC50 in assay [1] was 7.62; at Bcl-2-like protein 1 it was 8.15.
For `CCCCN(CCCC)c1nccc(-c2ccc(C(=O)NS(=O)(=O)c3ccc4ccccc4c3)cc2C(=O)N2Cc3ccccc3C[C@H]2CN)n1`, in that order: 6.37 and 6.80.
`CCCCc1c(-c2ccc(C(=O)NS(=O)(=O)c3ccc4ccccc4c3)cc2C(=O)N2CCc3ccccc3C2)c(C(=O)O)nn1-c1ccccc1`: the pIC50 in assay [1] was 6.77; against Bcl-2-like protein 1, 7.52.
As to `CCCCc1c(-c2ccc(C(=O)NS(=O)(=O)c3ccc4ccccc4c3)cc2C(=O)N2CCc3ccccc3C2)c(CO)nn1-c1ccc(CCCO)cc1`, the pIC50 in assay [1] is 7.85; against Bcl-2-like protein 1, 8.15.
`CCCCc1c(-c2ccc(C(=O)NS(=O)(=O)c3ccc4ccccc4c3)cc2C(=O)N2CCc3ccccc3C2)c(CO)nn1-c1ccc(Oc2ccccc2)cc1` gave a pIC50 against Bcl-2-like protein 1 of 7.46.
`CCCCc1c(-c2ccc(C(=O)NS(=O)(=O)c3ccc4ccccc4c3)cc2C(=O)N2CCc3ccccc3C2)c(CO)nn1-c1ccccc1`: the results for the pIC50 (in assay [1]; against Bcl-2-like protein 1) were 7.21 and 7.96, respectively.
Consider `CCCCN(CCCC)c1nccc(-c2ccc(C(=O)NS(=O)(=O)c3ccc4ccc(I)cc4c3)cc2C(=O)N2CCc3ccccc3C2)n1`, for which the pIC50 in assay [1] was 6.85; at Bcl-2-like protein 1 it was 6.01.
Regarding `CCCCc1c(-c2ccc(C(=O)NS(=O)(=O)c3ccc4ccccc4c3)cc2C(=O)N2CCc3ccccc3C2)c(CO)nn1-c1ccc(CCO)cc1`, on Bcl-2-like protein 1, the pIC50 was 8.22.
Turning to `CCCCc1c(-c2ccc(C(=O)NS(=O)(=O)c3ccc4ccccc4c3)cc2C(=O)N2CCc3ccccc3C2)c(C(=O)OCC)nn1-c1ccccc1`, the negative-log IC50 (pIC50) in assay [1] is 6.18; against Bcl-2-like protein 1, 7.38.
In the case of `CCCN(CCC)c1ncc(Cl)c(-c2ccc(C(=O)NS(=O)(=O)c3ccc4cccc(Cl)c4c3)cc2C(=O)N2Cc3ccccc3C[C@H]2CN)n1`, the values for the Activity result in the assay with MV4-11 [8], in the assay on MV4-11 [7] and in the assay on MV4-11 [9] were “Dose-dependent effect”, 25% and “Dose-dependent effect”, respectively. For the same compound, the pIC50 was 7.82 in assay [1]; 6.14 in the assay on MV4-11 [10]; 7.85 on Bcl-2-like protein 1; 6.48 in the assay on MV4-11 [3]; 5.18 in assay [4].
In the case of `CCCCN(CCCC)c1nccc(-c2ccc(C(=O)NS(=O)(=O)c3ccc4cccc(Cl)c4c3)cc2C(=O)N2CCc3ccccc3C2)n1`, the pIC50 in assay [1] is 6.92; against Bcl-2-like protein 1 it was 6.32.
In the case of `CCCCc1c(-c2ccc(C(=O)NS(=O)(=O)c3ccc4ccccc4c3)cc2C(=O)N2CCc3ccccc3C2)c(CO)nn1-c1ccc(Oc2ccc(Cl)cc2)cc1`, the pIC50 in assay [1] was 7.66; against Bcl-2-like protein 1 it was 7.46.
